Here are results for one molecule from publication PMC2151541 (The Journal of General Physiology, 2006).

Usually Kd stands for the concentration at which binding is half-saturated. Low readings indicate higher affinity, high ones lower affinity.

The test has as its target muscle acetylcholine nicotinic receptor (AChR), adult mouse muscle, wild type (Mus musculus, UniProt P02716+P04756+P09690+P20782). In words: cell-attached single-channel patch clamp. It counts as cell-based. On the technique in general: The patch-clamp technique gives a direct electrical read-out from membranes.

The structures appear in SMILES notation.

Sequence of muscle acetylcholine nicotinic receptor (AChR), adult mouse muscle, wild type (P02716 25-520): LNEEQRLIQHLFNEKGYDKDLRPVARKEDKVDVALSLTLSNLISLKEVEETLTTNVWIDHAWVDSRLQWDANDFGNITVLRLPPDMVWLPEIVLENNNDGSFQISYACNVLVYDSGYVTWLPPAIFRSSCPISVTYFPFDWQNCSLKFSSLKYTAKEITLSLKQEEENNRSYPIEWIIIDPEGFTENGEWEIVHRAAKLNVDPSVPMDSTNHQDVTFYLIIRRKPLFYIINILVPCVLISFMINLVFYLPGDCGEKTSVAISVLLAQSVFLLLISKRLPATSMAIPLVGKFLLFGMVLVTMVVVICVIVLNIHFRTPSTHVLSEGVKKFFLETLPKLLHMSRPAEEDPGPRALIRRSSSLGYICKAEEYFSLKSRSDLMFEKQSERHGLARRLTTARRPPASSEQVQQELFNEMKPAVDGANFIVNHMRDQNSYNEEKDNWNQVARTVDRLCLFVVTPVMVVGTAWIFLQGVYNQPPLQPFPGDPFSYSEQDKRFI
Sequence of muscle acetylcholine nicotinic receptor (AChR), adult mouse muscle, wild type (P20782 21-493): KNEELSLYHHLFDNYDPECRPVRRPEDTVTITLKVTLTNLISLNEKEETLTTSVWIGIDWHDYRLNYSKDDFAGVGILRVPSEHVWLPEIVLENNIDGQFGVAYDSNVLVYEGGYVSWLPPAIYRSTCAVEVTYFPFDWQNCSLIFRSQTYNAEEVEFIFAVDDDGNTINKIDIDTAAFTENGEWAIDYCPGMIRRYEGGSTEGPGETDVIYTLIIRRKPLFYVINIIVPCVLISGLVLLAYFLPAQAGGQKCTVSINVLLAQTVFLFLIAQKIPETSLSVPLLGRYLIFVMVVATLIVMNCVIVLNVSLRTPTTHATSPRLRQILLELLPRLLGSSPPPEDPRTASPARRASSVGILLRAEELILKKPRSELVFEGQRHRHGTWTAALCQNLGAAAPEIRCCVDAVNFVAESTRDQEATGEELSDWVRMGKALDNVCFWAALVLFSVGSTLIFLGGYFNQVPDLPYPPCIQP
Sequence of muscle acetylcholine nicotinic receptor (AChR), adult mouse muscle, wild type (P04756 21-457): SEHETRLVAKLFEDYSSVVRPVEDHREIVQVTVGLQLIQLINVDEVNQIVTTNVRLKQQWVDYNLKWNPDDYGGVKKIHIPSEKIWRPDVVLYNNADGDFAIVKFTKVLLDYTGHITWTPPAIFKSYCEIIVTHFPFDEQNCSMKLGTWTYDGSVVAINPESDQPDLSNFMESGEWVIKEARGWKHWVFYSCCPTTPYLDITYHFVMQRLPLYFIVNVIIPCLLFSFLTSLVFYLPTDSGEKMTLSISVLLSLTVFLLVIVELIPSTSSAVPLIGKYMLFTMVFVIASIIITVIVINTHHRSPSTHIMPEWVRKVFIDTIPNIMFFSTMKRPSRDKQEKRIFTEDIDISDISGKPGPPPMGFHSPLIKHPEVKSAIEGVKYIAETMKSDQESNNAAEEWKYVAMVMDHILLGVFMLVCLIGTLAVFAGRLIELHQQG
Sequence of muscle acetylcholine nicotinic receptor (AChR), adult mouse muscle, wild type (P09690 24-501): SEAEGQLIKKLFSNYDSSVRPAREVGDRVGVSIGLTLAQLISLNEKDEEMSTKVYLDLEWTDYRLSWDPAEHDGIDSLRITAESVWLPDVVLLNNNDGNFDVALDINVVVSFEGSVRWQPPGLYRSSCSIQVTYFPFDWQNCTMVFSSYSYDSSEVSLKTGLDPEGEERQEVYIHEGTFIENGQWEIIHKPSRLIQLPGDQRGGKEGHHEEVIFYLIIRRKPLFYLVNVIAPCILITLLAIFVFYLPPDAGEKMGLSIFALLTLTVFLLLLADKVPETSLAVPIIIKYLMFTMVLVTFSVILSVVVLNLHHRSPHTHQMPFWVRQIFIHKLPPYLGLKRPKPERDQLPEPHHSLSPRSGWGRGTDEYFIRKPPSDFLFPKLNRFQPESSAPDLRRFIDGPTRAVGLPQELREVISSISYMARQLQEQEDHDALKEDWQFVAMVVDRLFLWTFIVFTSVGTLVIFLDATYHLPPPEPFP

Molecule `C[N+](C)(C)CCO` [choline] registered a Kd of 12.5 mM.
